According to patent publication US20100298141A1, “SUBSTITUTED PYRIDINE N-OXIDE HERBICIDES” (E. I. DU PONT DE NEMOURS AND COMPANY, priority 2007, published 2010):

Assays:
redroot pigweed = assay: Test A pre-/postemergence greenhouse test; type: in vivo, Amaranthus retroflexus; conditions: for Pigweed plant response rating: 0 to 100 scale; for Plant response rating, Pigweed: 0 to 100 scale where 0 is no effect and 100 is complete control
Procedure, shortened: (§1)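 Untreated controls served as the reference for visual injury ratings taken about ten days after spraying. The non-phytotoxic solvent/surfactant formulation was applied preemergence to seeded loam and sand and postemergence to plants two to ten cm high.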

corn = assay: Test A pre-/postemergence greenhouse test; type: in vivo, Zea mays; conditions: for Corn plant response rating: 0 to 100 scale; for Plant response rating, Corn: 0 to 100 scale where 0 is no effect and 100 is complete control
Procedure, shortened: as §1

blackgrass = assay: Test C pre-/postemergence test; type: in vivo, Alopecurus myosuroides
Procedure, shortened: (§2)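 Seeds were planted and treated preemergence with test chemical in a non-phytotoxic solvent mixture containing surfactant. Postemergence applications of the same formulation went onto plants 2 to 18 cm tall (1- to 4-leaf stage). A dash marks no test result.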

wheat = assay: Test C pre-/postemergence test; type: in vivo, Triticum aestivum; conditions: for Wheat plant response rating: preemergence, scale 0 (no effect) to 100 (complete control)
Procedure, shortened: as §2

wild oat = assay: Test C pre-/postemergence test; type: in vivo, Avena fatua
Procedure, shortened: as §2

catchweed bedstraw = assay: Test C pre-/postemergence test; type: in vivo, Galium aparine
Procedure, shortened: as §2

bermudagrass = assay: Test C pre-/postemergence test; type: in vivo, Cynodon dactylon
Procedure, shortened: as §2

Surinam grass = assay: Test C pre-/postemergence test; type: in vivo, Brachiaria decumbens
Procedure, shortened: as §2

crabgrass = assay: Test C pre-/postemergence test; type: in vivo, Digitaria sanguinalis
Procedure, shortened: as §2

kochia = assay: Test C pre-/postemergence test; type: in vivo, Kochia scoparia
Procedure, shortened: as §2

eastern black nightshade = assay: Test C pre-/postemergence test; type: in vivo, Solanum ptycanthum
Procedure, shortened: as §2

pigweed = assay: Test C pre-/postemergence test; type: in vivo, Amaranthus retroflexus
Procedure, shortened: as §2

[1] = system: common (oilseed) sunflower; assay: Test C pre-/postemergence test; type: in vivo, Helianthus annuus
Procedure, shortened: as §2

velvetleaf = assay: Test C pre-/postemergence test; type: in vivo, Abutilon theophrasti
Procedure, shortened: as §2

rice = assay: Test C flooded paddy test; type: in vivo, Oryza sativa; conditions: Flood
Procedure, shortened: (§3)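 In-water treatment: compound dosed into 3 cm flood over soil, water level unchanged throughout. Controls run alongside; visual assessment at day 13–15.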

duck salad = assay: Test C flooded paddy test; type: in vivo, Heteranthera limosa; conditions: Flood
Procedure, shortened: as §3

barnyardgrass = assay: Test C flooded paddy test; type: in vivo, Echinochloa crus-galli; conditions: Flood
Procedure, shortened: as §3

[2] = Postemergence, 125 g ai/ha, 0 is no effect, 100 is complete control
[3] = Postemergence, 500 g ai/ha, 0 is no effect, 100 is complete control
[4] = Preemergence, 125 g ai/ha, 0 no effect, 100 complete control
[5] = Preemergence, 31 g ai/ha, scale 0 to 100 (0 no effect, 100 complete control)
[6] = preemergence, 250 g ai/ha, scale 0 (no effect) to 100 (complete control)
[7] = 125 g ai/ha, preemergence, scale 0 (no effect) to 100 (complete control)
[8] = 62 g ai/ha, Preemergence, scale 0 to 100
[9] = 31 g ai/ha, scale 0 to 100 (0 no effect, 100 complete control)
[10] = 62 g ai/ha, scale 0 to 100, 0 no effect, 100 complete control, 13 to 15 days
[11] = 125 g ai/ha, scale 0 to 100, 0 no effect, 100 complete control, 13 to 15 days
[12] = 250 g ai/ha, scale 0 to 100, 0 no effect, 100 complete control, 13 to 15 days
[13] = 31 g ai/ha, Preemergence, scale 0 to 100
[14] = 62 g ai/ha, preemergence, scale 0 (no effect) to 100 (complete control)
[15] = Postemergence, 62 g ai/ha, scale 0 to 100, 0 no effect, 100 complete control
[16] = Postemergence, 125 g ai/ha, scale 0 to 100, 0 no effect, 100 complete control
[17] = Postemergence, 250 g ai/ha, scale 0 to 100, 0 no effect, 100 complete control
[18] = preemergence, 125 g ai/ha, scale 0 (no effect) to 100 (complete control)
[19] = 250 g ai/ha, scale 0 to 100 (0 no effect, 100 complete control)

SMILES: Cc1cc[n+]([O-])c(S(=O)(=O)C(Cl)c2c(C(F)(F)F)nn(C)c2OCC(F)(F)F)c1 (racemic) [Compound 37]
- Pigweed plant response rating (redroot pigweed; [2]): 20
- Pigweed plant response rating (redroot pigweed; [3]): 50
- Pigweed plant response rating (redroot pigweed; [4]): 100
- Plant response rating, Pigweed (redroot pigweed; Preemergence, 500 g ai/ha): 100
- Corn plant response rating (corn; [2]): 0
- Corn plant response rating (corn; [3]): 40
- Corn plant response rating (corn; [4]): 0
- Plant response rating, Corn (corn; Preemergence, 500 g ai/ha): 30
- Plant response rating, Blackgrass (blackgrass; [5]): 95
- Blackgrass plant response rating (blackgrass; [6]): 100
- Plant response rating, Wheat (wheat; [5]): 0
- Wheat plant response rating (wheat; 250 g ai/ha): 30
- Plant response rating, Oat, Wild (wild oat; [5]): 0
- Oat, Wild plant response rating (wild oat; [6]): 60
- Plant response rating, Galium (catchweed bedstraw; [5]): 80
- Galium plant response rating (catchweed bedstraw; [6]): 80
- Bermudagrass plant response rating (bermudagrass; 62 g ai/ha, Preemergence, scale 0 to 100 (0 no effect, 100 complete control)): 90
- Bermudagrass plant response rating (bermudagrass; [7]): 100
- Plant response rating, Bermudagrass (bermudagrass; [5]): 85
- Bermudagrass plant response rating (bermudagrass; [6]): 100
- Surinam Grass plant response rating (Surinam grass; [8]): 100
- Surinam Grass plant response rating (Surinam grass; [7]): 100
- Plant response rating, Surinam Grass (Surinam grass; [5]): 50
- Surinam Grass plant response rating (Surinam grass; [6]): 100
- Crabgrass, Large plant response rating (crabgrass; [8]): 80
- Crabgrass, Large plant response rating (crabgrass; [7]): 100
- Plant response rating, Crabgrass, Large (crabgrass; [5]): 55
- Crabgrass, Large plant response rating (crabgrass; [6]): 100
- Kochia plant response rating (kochia; [8]): 40
- Kochia plant response rating (kochia; [7]): 100
- Plant response rating, Kochia (kochia; [5]): 0
- Kochia plant response rating (kochia; [6]): 100
- Nightshade plant response rating (eastern black nightshade; [8]): 80
- Nightshade plant response rating (eastern black nightshade; [7]): 85
- Plant response rating, Nightshade (eastern black nightshade; [5]): 80
- Nightshade plant response rating (eastern black nightshade; [6]): 90
- Pigweed plant response rating (pigweed; [8]): 100
- Pigweed plant response rating (pigweed; [7]): 100
- Plant response rating, Pigweed (pigweed; [5]): 80
- Pigweed plant response rating (pigweed; [6]): 100
- Sunflower plant response rating [1, 8]: 0
- Sunflower plant response rating [1, 7]: 0
- Plant response rating, Sunflower [1, 5]: 0
- Sunflower plant response rating [1, 6]: 40
- Velvetleaf plant response rating (velvetleaf; [8]): 0
- Velvetleaf plant response rating (velvetleaf; [7]): 10
- Plant response rating, Velvetleaf (velvetleaf; [5]): 0
- Velvetleaf plant response rating (velvetleaf; [6]): 70
- Plant response rating, Rice (rice; [9]): 15
- Plant response rating, Rice (rice; [10]): 15
- Plant response rating, Rice (rice; [11]): 25
- Plant response rating, Rice (rice; [12]): 70
- Plant response rating, Ducksalad (duck salad; [9]): 20
- Plant response rating, Ducksalad (duck salad; [10]): 40
- Plant response rating, Ducksalad (duck salad; [11]): 85
- Plant response rating, Ducksalad (duck salad; [12]): 95
- Plant response rating, Barnyardgrass (barnyardgrass; [9]): 10
- Plant response rating, Barnyardgrass (barnyardgrass; [10]): 10
- Plant response rating, Barnyardgrass (barnyardgrass; [11]): 10
- Plant response rating, Barnyardgrass (barnyardgrass; [12]): 80

SMILES: Cc1cc[n+]([O-])c([S+]([O-])Cc2c(C(F)(F)F)nn(C)c2OC(F)F)c1 (stereo not shown) [Compound 1]
- Pigweed plant response rating (redroot pigweed; [2]): 100
- Pigweed plant response rating (redroot pigweed; [3]): 100
- Pigweed plant response rating (redroot pigweed; [4]): 100
- Plant response rating, Pigweed (redroot pigweed; Preemergence, 500 g ai/ha): 100
- Corn plant response rating (corn; [2]): 50
- Corn plant response rating (corn; [3]): 80
- Corn plant response rating (corn; [4]): 0
- Plant response rating, Corn (corn; Preemergence, 500 g ai/ha): 70
- Blackgrass plant response rating (blackgrass; [13]): 70
- Blackgrass plant response rating (blackgrass; [14]): 100
- Plant response rating (0 to 100), Blackgrass (blackgrass; Postemergence, 31 g ai/ha): 0
- Plant response rating, Blackgrass (blackgrass; [15]): 0
- Plant response rating, Blackgrass (blackgrass; [16]): 0
- Plant response rating, Blackgrass (blackgrass; [17]): 0
- Plant response rating (0 to 100), Blackgrass (blackgrass; Preemergence, 250 g ai/ha): 100
- Blackgrass plant response rating (blackgrass; [18]): 100
- Wheat plant response rating (wheat; 62 g ai/ha): 30
- Plant response rating (0 to 100), Wheat (wheat; Postemergence, 31 g ai/ha): 0
- Plant response rating (0 to 100), Wheat (wheat; Postemergence, 62 g ai/ha): 0
- Plant response rating, Wheat (wheat; [16]): 0
- Plant response rating, Wheat (wheat; [17]): 0
- Plant response rating (0 to 100), Wheat (wheat; Preemergence, 250 g ai/ha): 95
- Wheat plant response rating (wheat; 125 g ai/ha): 60
- Oat, Wild plant response rating (wild oat; [13]): 50
- Oat, Wild plant response rating (wild oat; [14]): 85
- Plant response rating (0 to 100), Oat, Wild (wild oat; Postemergence, 31 g ai/ha): 0
- Plant response rating, Oat, Wild (wild oat; [15]): 0
- Plant response rating, Oat, Wild (wild oat; [16]): 0
- Plant response rating, Oat, Wild (wild oat; [17]): 0
- Plant response rating (0 to 100), Oat, Wild (wild oat; Preemergence, 250 g ai/ha): 100
- Oat, Wild plant response rating (wild oat; [18]): 95
- Galium plant response rating (catchweed bedstraw; [13]): 70
- Galium plant response rating (catchweed bedstraw; [14]): 85
- Plant response rating (0 to 100), Galium (catchweed bedstraw; Preemergence, 250 g ai/ha): 98
- Galium plant response rating (catchweed bedstraw; [18]): 98
- Bermudagrass plant response rating (bermudagrass; [13]): 85
- Bermudagrass plant response rating (bermudagrass; [14]): 90
- Plant response rating, Bermudagrass (bermudagrass; [16]): 70
- Plant response rating, Bermudagrass (bermudagrass; [17]): 80
- Plant response rating (0 to 100), Bermudagrass (bermudagrass; Preemergence, 250 g ai/ha): 100
- Bermudagrass plant response rating (bermudagrass; [18]): 100
- Surinam Grass plant response rating (Surinam grass; [14]): 100
- Plant response rating (0 to 100), Surinam Grass (Surinam grass; Postemergence, 31 g ai/ha): 0
- Plant response rating (0 to 100), Surinam Grass (Surinam grass; Postemergence, 62 g ai/ha): 0
- Plant response rating, Surinam Grass (Surinam grass; [16]): 30
- Plant response rating, Surinam Grass (Surinam grass; [17]): 60
- Plant response rating (0 to 100), Surinam Grass (Surinam grass; Preemergence, 250 g ai/ha): 100
- Surinam Grass plant response rating (Surinam grass; [18]): 100
- Crabgrass, Large plant response rating (crabgrass; [13]): 0
- Crabgrass, Large plant response rating (crabgrass; [14]): 80
- Plant response rating (0 to 100), Crabgrass, Large (crabgrass; Postemergence, 31 g ai/ha): 10
- Plant response rating, Crabgrass, Large (crabgrass; [15]): 30
- Plant response rating, Crabgrass, Large (crabgrass; [16]): 50
- Plant response rating, Crabgrass, Large (crabgrass; [17]): 70
- Plant response rating (0 to 100), Crabgrass, Large (crabgrass; Preemergence, 250 g ai/ha): 100
- Crabgrass, Large plant response rating (crabgrass; [18]): 100
- Kochia plant response rating (kochia; [13]): 100
- Kochia plant response rating (kochia; [14]): 100
- Plant response rating (0 to 100), Kochia (kochia; Postemergence, 31 g ai/ha): 0
- Plant response rating, Kochia (kochia; [15]): 0
- Plant response rating, Kochia (kochia; [16]): 10
- Plant response rating, Kochia (kochia; [17]): 40
- Plant response rating (0 to 100), Kochia (kochia; Preemergence, 250 g ai/ha): 100
- Kochia plant response rating (kochia; [18]): 100
- Nightshade plant response rating (eastern black nightshade; [13]): 70
- Nightshade plant response rating (eastern black nightshade; [14]): 100
- Plant response rating (0 to 100), Nightshade (eastern black nightshade; Preemergence, 250 g ai/ha): 100
- Nightshade plant response rating (eastern black nightshade; [18]): 100
- Pigweed plant response rating (pigweed; [13]): 80
- Pigweed plant response rating (pigweed; [14]): 100
- Plant response rating (0 to 100), Pigweed (pigweed; Postemergence, 31 g ai/ha): 0
- Plant response rating (0 to 100), Pigweed (pigweed; Postemergence, 62 g ai/ha): 0
- Plant response rating, Pigweed (pigweed; [16]): 0
- Plant response rating, Pigweed (pigweed; [17]): 10
- Plant response rating (0 to 100), Pigweed (pigweed; Preemergence, 250 g ai/ha): 100
- Pigweed plant response rating (pigweed; [18]): 100
- Sunflower plant response rating [1, 14]: 5
- Plant response rating (0 to 100), Sunflower ([1]; Preemergence, 250 g ai/ha): 75
- Sunflower plant response rating [1, 18]: 25
- Plant response rating (0 to 100), Velvetleaf (velvetleaf; Postemergence, 31 g ai/ha): 10
- Plant response rating (0 to 100), Velvetleaf (velvetleaf; Postemergence, 62 g ai/ha): 40
- Plant response rating, Velvetleaf (velvetleaf; [16]): 45
- Plant response rating, Velvetleaf (velvetleaf; [17]): 60
- Plant response rating, Rice (rice; [9]): 0
- Plant response rating, Rice (rice; [10]): 0
- Plant response rating, Rice (rice; [11]): 80
- Plant response rating, Rice (rice; [19]): 80
- Plant response rating, Barnyardgrass (barnyardgrass; [9]): 0
- Plant response rating, Barnyardgrass (barnyardgrass; [10]): 0
- Plant response rating, Barnyardgrass (barnyardgrass; [11]): 80
- Plant response rating, Barnyardgrass (barnyardgrass; [19]): 80
